The source of these data is ChEMBL document CHEMBL3102798, “Stapled Vasoactive Intestinal Peptide (VIP) Derivatives Improve VPAC2 Agonism and Glucose-Dependent Insulin Secretion” (ACS Med Chem Lett, 2013).

Series [1] concerns the target T1, Vasoactive intestinal polypeptide receptor 2 (Homo sapiens, UniProt P41587).
T1 sequence (P41587 whole entry): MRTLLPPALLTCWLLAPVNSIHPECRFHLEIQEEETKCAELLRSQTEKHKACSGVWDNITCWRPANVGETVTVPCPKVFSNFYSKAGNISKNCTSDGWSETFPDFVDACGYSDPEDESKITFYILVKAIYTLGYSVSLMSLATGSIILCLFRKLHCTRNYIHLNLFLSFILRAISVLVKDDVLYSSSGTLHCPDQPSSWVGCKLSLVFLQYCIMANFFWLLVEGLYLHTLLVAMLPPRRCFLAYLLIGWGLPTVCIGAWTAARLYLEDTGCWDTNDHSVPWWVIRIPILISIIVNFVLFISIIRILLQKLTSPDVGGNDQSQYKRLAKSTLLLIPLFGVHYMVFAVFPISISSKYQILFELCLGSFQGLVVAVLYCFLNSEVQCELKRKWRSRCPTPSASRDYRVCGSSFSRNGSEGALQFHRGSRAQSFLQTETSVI
As to the kind of experiment: Agonist activity at human VPAC2 expressed in CHO Flp-in cells assessed as accumulation of cAMP after 30 mins by TR-FRET assay. It counts as functional, cell-based.

The nature of series [2]: Stability of the compound in phosphate buffer assessed as compound remaining at pH 7.4 after 15 mins by LC-MS-MS analysis in presence of trypsin. It counts as ADME. The note with it: phosphate buffer with trypsin, read-out: Stability.
Series [3] can be described thus: Apparent passive permeability across apical to basolateral side in human Caco2 cells at 10 uM after 30 to 60 mins by LC/MS analysis. It counts as ADME, cell-based. Conditions: Caco-2.

Numbered stars: 1 amine (or outer) side, 2 acyl side, 3 side chain; on linkers, the order of the positions; unused ones are H or OH. Bridge positions count the residues as written; N and C are the ends. Square brackets hold non-standard residues; d marks the D form. Peptide text beside a SMILES is read from it. X1 = C[C@@](CCCCC=[*:3])(N[*:1])C(=O)[*:2]; S5 = C=CCCC[C@](C)(N)C(=O)O

For orientation: EC50 means the concentration needed to bring the measured effect to its halfway point. As a reminder, the Papp A→B is the apparent permeability from the apical to the basolateral side of a cell layer. On to `C=CCCC[C@](C)(NC(=O)[C@H](CCC(N)=O)NC(=O)[C@H](CCCCN)NC(=O)[C@H](CCCN=C(N)N)NC(=O)[C@](C)(CCCC=C)NC(=O)[C@H](CCCN=C(N)N)NC(=O)[C@@H](NC(=O)[C@H](Cc1ccc(O)cc1)NC(=O)[C@H](CC(N)=O)NC(=O)[C@H](CC(=O)O)NC(=O)[C@@H](NC(=O)[C@H](Cc1ccccc1)NC(=O)[C@@H](NC(=O)[C@H](C)NC(=O)[C@H](CC(=O)O)NC(=O)[C@H](CO)NC(=O)[C@@H](N)Cc1cnc[nH]1)C(C)C)[C@@H](C)O)[C@@H](C)O)C(=O)N[C@@H](C)C(=O)N[C@H](C(=O)N[C@@H](CCCCN)C(=O)N[C@@H](CCCCN)C(=O)N[C@@H](Cc1ccc(O)cc1)C(=O)N[C@@H](CC(C)C)C(=O)N[C@@H](CC(N)=O)C(=O)N[C@@H](CO)C(=O)N[C@H](C(=O)N[C@@H](CC(C)C)C(=O)N[C@@H](CC(N)=O)C(=O)NCC(=O)N[C@@H](CCCCN)C(=O)O)[C@@H](C)CC)C(C)C`, for which the EC50 in series [1] worked out at 1.37 nM. In addition, the remaining at 0.25 h in series [2] amounted to 0.7%. Further, the Papp A→B at 10 µM in series [3] was less than 0.1 ×10⁻⁶ cm/s.

On to `CC[C@H](C)[C@H](NC(=O)[C@H](CO)NC(=O)[C@H](CC(N)=O)NC(=O)[C@H](CC(C)C)NC(=O)[C@H](Cc1ccc(O)cc1)NC(=O)[C@H](CCCCN)NC(=O)[C@H](CCCCN)NC(=O)[C@@H](NC(=O)[C@H](C)NC(=O)[C@@H]1CCCCNC(=O)CC[C@H](NC(=O)[C@H](CCCN=C(N)N)NC(=O)[C@@H](NC(=O)[C@H](Cc2ccc(O)cc2)NC(=O)[C@H](CC(N)=O)NC(=O)[C@H](CC(=O)O)NC(=O)[C@@H](NC(=O)[C@H](Cc2ccccc2)NC(=O)[C@@H](NC(=O)[C@H](C)NC(=O)[C@H](CC(=O)O)NC(=O)[C@H](CO)NC(=O)[C@@H](N)Cc2cnc[nH]2)C(C)C)[C@@H](C)O)[C@@H](C)O)C(=O)N[C@@H](CCCN=C(N)N)C(=O)N[C@@H](CCCCN)C(=O)N[C@@H](CCC(N)=O)C(=O)N1)C(C)C)C(=O)N[C@@H](CC(C)C)C(=O)N[C@@H](CC(N)=O)C(=O)NCC(=O)N[C@@H](CCCCN)C(=O)O` (H-HSDAVFTDNYTRERKQKAVKKYLNSILNGK-OH; lactam 13-17), for which the EC50 in series [1] amounted to 1.16 nM.

With `CC[C@H](C)[C@H](NC(=O)[C@H](CCC(N)=O)NC(=O)[C@H](CCCCN)NC(=O)[C@H](CCCNC(=N)N)NC(=O)[C@H](CC(C)C)NC(=O)[C@H](CCCNC(=N)N)NC(=O)[C@@H](NC(=O)[C@H](Cc1ccc(O)cc1)NC(=O)[C@H](CC(N)=O)NC(=O)[C@H](CC(=O)O)NC(=O)[C@@H](NC(=O)[C@H](Cc1ccccc1)NC(=O)[C@@H](NC(=O)[C@H](C)NC(=O)[C@H](CC(=O)O)NC(=O)[C@H](CO)NC(=O)[C@@H](N)Cc1cnc[nH]1)C(C)C)[C@@H](C)O)[C@@H](C)O)C(=O)N[C@@H](C)C(=O)N[C@H](C(=O)N[C@@H](CCCCN)C(=O)N[C@H]1CCC(=O)NCCCC[C@@H](C(=O)N[C@H](C(=O)N[C@@H](CC(C)C)C(=O)N[C@@H](CC(N)=O)C(=O)NCC(=O)N[C@@H](CCCCN)C(=O)O)[C@@H](C)CC)NC(=O)[C@H](CC(N)=O)NC(=O)[C@H](CC(C)C)NC(=O)[C@H](Cc2ccc(O)cc2)NC1=O)C(C)C` (H-HSDAVFTDNYTRLRKQIAVKEYLNKILNGK-OH; lactam 21-25), the EC50 in series [1] was 0.11 nM.

As to `C=CCCC[C@](C)(NC(=O)[C@H](CC(C)C)NC(=O)[C@@H](NC(=O)[C@H](CO)NC(=O)[C@](C)(CCCC=C)NC(=O)[C@H](CC(C)C)NC(=O)[C@H](Cc1ccc(O)cc1)NC(=O)[C@H](CCCCN)NC(=O)[C@H](CCCCN)NC(=O)[C@@H](NC(=O)[C@H](C)NC(=O)[C@@H](NC(=O)[C@H](CCC(N)=O)NC(=O)[C@H](CCCCN)NC(=O)[C@H](CCCNC(=N)N)NC(=O)[C@H](CC(C)C)NC(=O)[C@H](CCCNC(=N)N)NC(=O)[C@@H](NC(=O)[C@H](Cc1ccc(O)cc1)NC(=O)[C@H](CC(N)=O)NC(=O)[C@H](CC(=O)O)NC(=O)[C@@H](NC(=O)[C@H](Cc1ccccc1)NC(=O)[C@@H](NC(=O)[C@H](C)NC(=O)[C@H](CC(=O)O)NC(=O)[C@H](CO)NC(=O)[C@@H](N)Cc1cnc[nH]1)C(C)C)[C@@H](C)O)[C@@H](C)O)[C@@H](C)CC)C(C)C)[C@@H](C)CC)C(=O)NCC(=O)N[C@@H](CCCCN)C(=O)O` (H-HSDAVFTDNYTRLRKQIAVKKYL[S5]SIL[S5]GK-OH), the EC50 in series [1] stood at 0.21 nM.

With `CC[C@H](C)[C@H](NC(=O)[C@H](CCC(N)=O)NC(=O)[C@H](CCCCN)NC(=O)[C@H](CCCNC(=N)N)NC(=O)[C@H](CC(C)C)NC(=O)[C@H](CCCNC(=N)N)NC(=O)[C@@H](NC(=O)[C@H](Cc1ccc(O)cc1)NC(=O)[C@H](CC(N)=O)NC(=O)[C@H](CC(=O)O)NC(=O)[C@@H](NC(=O)[C@H](Cc1ccccc1)NC(=O)[C@@H](NC(=O)[C@H](C)NC(=O)[C@H](CC(=O)O)NC(=O)[C@H](CO)NC(=O)[C@@H](N)Cc1cnc[nH]1)C(C)C)[C@@H](C)O)[C@@H](C)O)C(=O)N[C@@H](C)C(=O)N[C@H](C(=O)N[C@@H](CCCCN)C(=O)N[C@@H](CCCCN)C(=O)N[C@@H](Cc1ccc(O)cc1)C(=O)N[C@@H](CC(C)C)C(=O)N[C@@]1(C)CCCC/C=C\CCCC[C@@](C)(C(=O)NCC(=O)N[C@@H](CCCCN)C(=O)O)NC(=O)[C@H](CC(C)C)NC(=O)[C@H]([C@@H](C)CC)NC(=O)[C@H](CO)NC1=O)C(C)C` (H-HSDAVFTDNYTRLRKQIAVKKYL[X1]SIL[X1]GK-OH; staple (Z) 24-28), the 50% effective concentration (EC50) in series [1] was found to be 0.39 nM.

Consider `C=CCCC[C@](C)(NC(=O)[C@H](CCCCN)NC(=O)[C@@H](NC(=O)[C@H](C)NC(=O)[C@@H](NC(=O)[C@H](CCC(N)=O)NC(=O)[C@H](CCCCN)NC(=O)[C@H](CCCN=C(N)N)NC(=O)[C@H](CC(C)C)NC(=O)[C@H](CCCN=C(N)N)NC(=O)[C@@H](NC(=O)[C@H](Cc1ccc(O)cc1)NC(=O)[C@H](CC(N)=O)NC(=O)[C@H](CC(=O)O)NC(=O)[C@@H](NC(=O)[C@H](Cc1ccccc1)NC(=O)[C@@H](NC(=O)[C@H](C)NC(=O)[C@H](CC(=O)O)NC(=O)[C@H](CO)NC(=O)[C@@H](N)Cc1cnc[nH]1)C(C)C)[C@@H](C)O)[C@@H](C)O)[C@@H](C)CC)C(C)C)C(=O)N[C@@H](Cc1ccc(O)cc1)C(=O)N[C@@H](CC(C)C)C(=O)N[C@@H](CC(N)=O)C(=O)N[C@@](C)(CCCC=C)C(=O)N[C@H](C(=O)N[C@@H](CC(C)C)C(=O)N[C@@H](CC(N)=O)C(=O)NCC(=O)N[C@@H](CCCCN)C(=O)O)[C@@H](C)CC` (H-HSDAVFTDNYTRLRKQIAVK[S5]YLN[S5]ILNGK-OH), for which the EC50 in series [1] was found to be 3.8 nM.

`CC[C@H](C)[C@H](NC(=O)[C@H](CCC(N)=O)NC(=O)[C@H](CCCCN)NC(=O)[C@H](CCCNC(=N)N)NC(=O)[C@H](CC(C)C)NC(=O)[C@H](CCCNC(=N)N)NC(=O)[C@@H](NC(=O)[C@H](Cc1ccc(O)cc1)NC(=O)[C@H](CC(N)=O)NC(=O)[C@H](CC(=O)O)NC(=O)[C@@H](NC(=O)[C@H](Cc1ccccc1)NC(=O)[C@@H](NC(=O)[C@H](C)NC(=O)[C@H](CC(=O)O)NC(=O)[C@H](CO)NC(=O)[C@@H](N)Cc1cnc[nH]1)C(C)C)[C@@H](C)O)[C@@H](C)O)C(=O)N[C@@H](C)C(=O)N[C@H](C(=O)N[C@@H](CCCCN)C(=O)N[C@@]1(C)CCCC/C=C\CCCC[C@@](C)(C(=O)N[C@H](C(=O)N[C@@H](CC(C)C)C(=O)N[C@@H](CC(N)=O)C(=O)NCC(=O)N[C@@H](CCCCN)C(=O)O)[C@@H](C)CC)NC(=O)[C@H](CC(N)=O)NC(=O)[C@H](CC(C)C)NC(=O)[C@H](Cc2ccc(O)cc2)NC1=O)C(C)C` (H-HSDAVFTDNYTRLRKQIAVK[X1]YLN[X1]ILNGK-OH; staple (Z) 21-25): in series [1], the EC50 was found to be 1.52 nM.

For the molecule `C=CCCC[C@](C)(NC(=O)[C@H](CCC(N)=O)NC(=O)[C@H](CCCCN)NC(=O)[C@H](CCCN=C(N)N)NC(=O)[C@H](CC(C)C)NC(=O)[C@H](CCCN=C(N)N)NC(=O)[C@@H](NC(=O)[C@H](Cc1ccc(O)cc1)NC(=O)[C@H](CC(N)=O)NC(=O)[C@H](CC(=O)O)NC(=O)[C@@H](NC(=O)[C@H](Cc1ccccc1)NC(=O)[C@@H](NC(=O)[C@H](C)NC(=O)[C@H](CC(=O)O)NC(=O)[C@H](CO)NC(=O)[C@@H](N)Cc1cnc[nH]1)C(C)C)[C@@H](C)O)[C@@H](C)O)C(=O)N[C@@H](C)C(=O)N[C@H](C(=O)N[C@@H](CCCCN)C(=O)N[C@@](C)(CCCC=C)C(=O)N[C@@H](Cc1ccc(O)cc1)C(=O)N[C@@H](CC(C)C)C(=O)N[C@@H](CC(N)=O)C(=O)N[C@@H](CO)C(=O)N[C@H](C(=O)N[C@@H](CC(C)C)C(=O)N[C@@H](CC(N)=O)C(=O)NCC(=O)N[C@@H](CCCCN)C(=O)O)[C@@H](C)CC)C(C)C` (H-HSDAVFTDNYTRLRKQ[S5]AVK[S5]YLNSILNGK-OH), in series [1], the half-maximal effective concentration (EC50) is 1.49 nM.

For `CC[C@H](C)[C@H](NC(=O)[C@H](CO)NC(=O)[C@H](CC(N)=O)NC(=O)[C@H](CC(C)C)NC(=O)[C@H](Cc1ccc(O)cc1)NC(=O)[C@]1(C)CCCC/C=C\CCCC[C@](C)(NC(=O)[C@H](CCC(N)=O)NC(=O)[C@H](CCCCN)NC(=O)[C@H](CCCNC(=N)N)NC(=O)[C@H](CC(C)C)NC(=O)[C@H](CCCNC(=N)N)NC(=O)[C@@H](NC(=O)[C@H](Cc2ccc(O)cc2)NC(=O)[C@H](CC(N)=O)NC(=O)[C@H](CC(=O)O)NC(=O)[C@@H](NC(=O)[C@H](Cc2ccccc2)NC(=O)[C@@H](NC(=O)[C@H](C)NC(=O)[C@H](CC(=O)O)NC(=O)[C@H](CO)NC(=O)[C@@H](N)Cc2cnc[nH]2)C(C)C)[C@@H](C)O)[C@@H](C)O)C(=O)N[C@@H](C)C(=O)N[C@@H](C(C)C)C(=O)N[C@@H](CCCCN)C(=O)N1)C(=O)N[C@@H](CC(C)C)C(=O)N[C@@H](CC(N)=O)C(=O)NCC(=O)N[C@@H](CCCCN)C(=O)O` (H-HSDAVFTDNYTRLRKQ[X1]AVK[X1]YLNSILNGK-OH; staple (Z) 17-21), the EC50 in series [1] was determined as 0.33 nM.

For H-HSDAVFTDNYTRERKQKAVKKYLNSILNGK-OH, the 50% effective concentration (EC50) in series [1] was found to be 6.6 nM.

Turning to H-HSDAVFTDNYTRLRKQIAVKEYLNKILNGK-OH, the half-maximal effective concentration (EC50) in series [1] was 0.21 nM.
